Experimental data reported in paper PMC9474773, “PARP targeted Auger emitter therapy with [^125I]PARPi-01 for triple-negative breast cancer” (EJNMMI Research, 2022).
Several values for one entry are separate records, joined by “and”; a condition that tells them apart may be missing. Equal entries are not always repeated. Values belong to the molecule of their own block, whether it stands above or below them.

Assays:
[1] = system: subcutaneous MDA-MB-231 xenografts; experiment: Ex vivo biodistribution by gamma counter; format: in vivo, NOD/SCID mice
Procedure: Female NOD/SCID mice at 5–6 weeks of age (Janvier, France) was used for developing subcutaneous TNBC tumour. Animals were housed in 20–24 °C in a 12 h day light cycle. For each mouse, 3 × 10^6 MDA-MB-231 cells were suspended in a 1:1 (volume) mixture of Culture media: Matrigel® matrix (Corning®, Product No: 356237). Mice were inoculated with this cell suspension (max 200 µl) subcutaneously in the right flank. Tumour growth was monitored daily using calliper measurements. Tumour volume was calculated daily according to the formula Tumourvolume=TumourLength×Tumourbreadth^2×0.52
Upon reaching of a tumour volume of 500 mm^3, animals were proceeded for experiments. For biodistribution study animals were administered with [^123I]PARPi-01 (n = 3). For therapy studies animals were randomized for control (n = 10) or [^125I]PARPi-01 administration (n = 10). Randomisation was done based on equivalent distribution of tumour volumes. In addition to the daily calliper measurements image analysis of CT based tumour volumes was blinded to avoid bias. Animals were sacrificed upon completion of biodistribution study or upon reaching a humane end point for the therapy study. Humane end point is determined as reaching of either of the following conditions: 15 mm tumour diameter, 1500 mm^3 tumour volume, or development of ulcers/ascites.
For biodistribution, animals imaged at 4 h p.i. were killed 24 h p.i., while the ones scanned 24 h p.i. were killed 5 days p.i.. Subsequently, organs were excised, weighed, and assayed for radioactivity in a gamma counter. Mean tumour and organ uptake was determined from decay-corrected tissue radioactivity normalized to injected dose and tissue sample weight (%ID/g tissue wet weight).

[2] = system: subcutaneous MDA-MB-231 tumours; experiment: Small animal SPECT/CT imaging; format: in vivo, NOD/SCID mice
Procedure: Imaging was performed with a small animal SPECT/CT system (X-Cube and γ-Cube, Molecubes, Gent, Belgium). Mice bearing subcutaneous MDA-MB-231 tumours upon reaching tumour volume of 500 mm^3 were intravenously administered with [^123I]PARPi-01 (9.3 ± 2.7 MBq) via lateral tail-vein using a catheter under 1.5 to 2.5% isoflurane anaesthesia in oxygen at 0.8 L/min. [^123I]PARPi-01 was prepared by diluting the tracer in 0.9% NaCl to a total volume of 100 μL. Administered dose was calculated by subtraction of decay-corrected syringe activity post-injection from pre-injection activity. The mice were scanned either at 4 h or at 24 h post injection (p.i.). The CT acquisition settings were as follows: default high resolution protocol, 440 uA, 50 kVp, 32 ms exposure time, and 1080° rotation in a spiral mode with 960 exposures/360°; the duration of each CT scan was 5 min. A SPECT scan was initiated at the end of each CT scan. The SPECT acquisition settings were as follows: 7-headed camera equipped with a general-purpose collimator with 28 pinholes (i.e., 0.75 mm apertures and a radius of rotation of 20 mm), helical scan with 82 bed positions; the total duration of each SPECT scan was 30 min. Both CT and SPECT axial fields of view were selected at 105 mm. During the scans, the isoflurane concentration was adapted to achieve a respiratory rate between 75 and 50 breaths per minute. […]

[3] = set-up: method as in PMID 27169564; conditions: cited from earlier work
[4] = set-up: method as in PMID 29630818; conditions: cited from earlier work
cytochrome P450 (CYP450) = system: cytochrome P450 (CYP450); set-up: method as in PMID 28736501, PMID 29717476; conditions: cited from earlier work
[5] = set-up: method as in PMID 34318678; conditions: intracellular distribution not considered; cited from earlier work
[6] = 24 h p.i., i.v., decay-corrected, n = 3

Tumour: Blood Ratio ([1]; 24 h p.i.): 1.3 | liver uptake [1, 6]: 2.5 %ID/g and 2.49 ± 0.6 %ID/g | tumour uptake [1, 6]: 0.2 %ID/g | activity in organs of animals sacrificed at 5 d p.i. ([1]; 5 d p.i.): no quantifiable activity | clearance pathway ([2]; 4 h and 24 h p.i.): hepatobiliary clearance | deiodination in vivo (thyroid uptake) ([2]; 24 h p.i.): strong deiodination
SMILES: O=C(c1ccc([123I])cc1)N1CCN(C(=O)c2cc(Cc3n[nH]c(=O)c4ccccc34)ccc2F)CC1 [[^123I]PARPi-01]

SMILES: O=C(c1cc(Cc2n[nH]c(=O)c3ccccc23)ccc1F)N1CCN(C(=O)C2CC2)CC1 [Olaparib]
dose limiting toxicities [3]: anaemia, thrombocytopenia, and neutropenia | Log Poct [4]: 1.95 | fraction metabolised in liver by CYP450 (cytochrome P450 (CYP450)): 84%

SMILES: O=C(c1cccc([123I])c1)N1CCN(C(=O)c2cc(Cc3n[nH]c(=O)c4ccccc34)ccc2F)CC1 [[^123I]MAPi]
estimated absorbed dose in liver [5]: 0.0044 Gy/MBq | estimated absorbed dose in thyroid [5]: 0.0041 Gy/MBq
